Assay results taken from patent US11478451B1, “Macrocyclic chlorine substituted indole derivatives” (Bayer Aktiengesellschaft, priority 2017, dated 2022).
Counter-ions that a name gives are not always drawn. Like-named read-outs stand apart in the source and are kept apart here.

Tests used:
SUDHL5 cells [1] = assay: Induction of caspase-3/7 activity (Caspase-Glo 3/7), SUDHL5; type: cell-based; details: EC50, median, SUDHL5, 3 h treatment
Procedure, shortened: (§1)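 Caspase-3/7 activation serves as the apoptosis read-out for MCL-1 inhibition. Cells are treated with compound for 3 h at 37 °C and assayed with Caspase-Glo 3/7; values are corrected by subtracting medium-only background.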

SUDHL10 cells [2] = assay: Induction of caspase-3/7 activity (Caspase-Glo 3/7), SUDHL10; type: cell-based; details: EC50, median, SUDHL10, 3 h treatment
Procedure, shortened: as §1

SUDHL5 cells [3] = assay: Antiproliferation assay (CellTiter-Glo, 72 h), SUDHL5; type: cell-based; details: IC50, median, SUDHL5, 72 h, read-out: Antiproli SUDHL5 [M] (median)
Description: (§2) Assessment of the Anti-Proliferative Effect of Compounds in Different Cell Lines
(§3) The impact of compounds on the proliferation of different cell lines was assessed using the CellTiter-Glo® Luminescent Cell Viability reagent from Promega (G7573).
(§4) In parallel, cells were plated in a reference (day 0) plate for time zero determination.
(§5) Rim wells were excluded. The cells were incubated for 72 h hours in a humidified incubator at 37° C. The day 0 plate was measured by adding 30 μL/well of CTG solution (CellTiter-Glo® Luminescent Cell Viability reagent, Promega G7573) to time zero wells in the reference plate followed by a 10 minutes incubation and luminescence reading at 0.1 ms. using the PHERAstar FS microplate reader (BMG Labtech).
(§6) After 72 h incubation, the treated plates were measured in the same way as the day 0 plate mentioned above.

AMO-1 cells = assay: Antiproliferation assay (CellTiter-Glo, 72 h), AMO-1; type: cell-based; details: IC50, median, AMO-1, 72 h, read-out: Antiproli AMO-1 [M] median
Procedure, shortened: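 Cells plated in treatment plates plus a day 0 reference plate; incubated 72 h at 37 °C; CellTiter-Glo added, 10 min incubation, luminescence read; day 0 plate read at time zero.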

SUDHL5 cells [4] = assay: Induction of cytotoxicity (CellTiter-Glo, 5 h), SUDHL5; details: SUDHL5, 5 h
SUDHL10 cells [5] = assay: Induction of cytotoxicity (CellTiter-Glo, 5 h), SUDHL10; details: SUDHL10, 5 h
Description: Therefore, cytotoxicity assays were run in parallel in SUDHL5 and SUDHL10 cells.
The different cell lines were plated in culture medium (RPMI 1640 [GIBCO #22400-089] supplemented with 10% Fetal Bovine Serum) at a density of 3,300 cells in 30 μL/well in a sterile, solid black, flat bottom, polystyrene, TC-treated 384-well microplate (Corning #3571) using Multidrop Combi Reagent Dispenser. As a control, medium without cells was also added to the plate. Cells were incubated in a humidified incubator at 37° C. overnight. […] Rim wells were excluded. The cells were incubated for 5 h hours in a humidified incubator at 37° C. After this incubation, 30 μL of CellTiter-Glo® Luminescent Cell Viability reagent (Promega, G7573) was added to each well using the Multidrop Combi Reagent Dispenser, followed by 15 min incubation on a shaker at room temperature. Finally, luminescence was read at 0.1 ms, with a gain of 3000 using the PHERAstar FS microplate reader (BMG Labtech).

HMC-1-8 cells = assay: Antiproliferation assay (CellTiter-Glo, 72 h), HMC-1-8; type: cell-based; details: IC50, median, HMC-1-8, 72 h, read-out: Antiproli HMC-1-8 [M] median
Description: as §2, §3, §4, §5, §6

[6] = read-out: Cytotox SUDHL5 [M] (median), IC50, median
[7] = read-out: Cytotox SUDHL10 [M] (median), IC50, median
[8] = Homo sapiens, SU-DHL-5, 5 h, read-out: Cytotox SUDHL5 [M] (median), IC50, median
[9] = Homo sapiens, SU-DHL10, 5 h, read-out: Cytotox SUDHL10 [M] (median), IC50, median

Work on `CCc1c2c(nn1C)COCC1(CCn3c(C(=O)O)c(CCCOc4cccc5cc(F)ccc45)c4ccc(Cl)c-2c43)CC1` [Example 111, (+)-4′-chloro-3′-ethyl-7′-{3-[(6-fluoronaphthalen-1-yl)oxy]propyl}-2′-methyl-2′,10′,11′,15′-tetrahydro-13′H-spiro[cyclopropane-1,12′-pyrazolo[4′,3′:9,10][1,6]oxazacycloundecino[8,7,6-hi]indole]-8′-carboxylic acid-N-ethylethanamine salt] yielded an EC50 (SUDHL5 cells [1]) of 5000 nM, an EC50 (SUDHL10 cells [2]) of 4900 nM and an IC50 (SUDHL5 cells [3]) of 3.1e-07 M. The IC50 (AMO-1 cells) was 8.4e-06 M, the IC50 (SUDHL5 cells [4]; [6]) was 6e-06 M and the IC50 (SUDHL10 cells [5]; [7]) was 6.7e-06 M.
`CCc1c2c(nn1C)CN(CCN1CCOCC1)CCCCn1c(C(=O)O)c(CCCOc3cccc4cc(F)ccc34)c3ccc(Cl)c-2c31` (single isomer, unassigned; enantiomer 1) [Example 142, 4-chloro-3-ethyl-7-{3-[(6-fluoronaphthalen-1-yl)oxy]propyl}-2-methyl-14-[2-(morpholin-4-yl)ethyl]-10,11,12,13,14,15-hexahydro-2H-pyrazolo[3′,4′:8,9][1,6]diazacycloundecino[10,11,1-hi]indole-8-carboxylic acid (Enantiomer 1)] showed an IC50 (HMC-1-8 cells) of 7.5e-07 M.
In the case of `CCc1c2c(nn1C)CN(CC(F)F)CCCCn1c(C(=O)O)c(CCCOc3cccc4cc(F)ccc34)c3ccc(Cl)c-2c31` (single isomer, unassigned; enantiomer 1) [Example 75, (+)-4-chloro-14-(2,2-difluoroethyl)-3-ethyl-7-{3-[(6-fluoronaphthalen-1-yl)oxy]propyl}-2-methyl-10,11,12,13,14,15-hexahydro-2H-pyrazolo[3′,4′:8,9][1,6]diazacycloundecino[10,11,1-hi]indole-8-carboxylic acid-N-ethylethanamine salt (Enantiomer 1)], the EC50 (SUDHL5 cells [1]; listed as 075) was 550 nM, the EC50 (SUDHL10 cells [2]; listed as 075) was 3500 nM and the IC50 (SUDHL5 cells [3]; listed as 075) was 1.6e-06 M. For the same compound, the IC50 (AMO-1 cells; listed as 075) was 4.8e-06 M, the IC50 (SUDHL5 cells [4]; read-out: Cytotox SUDHL5 [M] (median), IC50, median, listed as 075) was 9.1e-07 M and the IC50 (SUDHL10 cells [5]; read-out: Cytotox SUDHL10 [M] (median), IC50, median, listed as 075) was 1.4e-06 M.
For `CCc1c2c(nn1C)CN(CCC(C)(C)O)CCCCn1c(C(=O)O)c(CCCOc3cccc4cc(F)ccc34)c3ccc(Cl)c-2c31` (single isomer, unassigned; enantiomer 1) [Example 140, 4-chloro-3-ethyl-7-{3-[(6-fluoronaphthalen-1-yl)oxy]propyl}-14-(3-hydroxy-3-methylbutyl)-2-methyl-10,11,12,13,14,15-hexahydro-2H-pyrazolo[3′,4′:8,9][1,6]diazacycloundecino[10,11,1-hi]indole-8-carboxylic acid (Enantiomer 1)], the IC50 (HMC-1-8 cells; 72 h) was 1.4e-06 M.
Compound `CCc1c2c(nn1C)COCC1(CCn3c(C(=O)O)c(CCCOc4cccc5ccccc45)c4ccc(Cl)c-2c43)CC1` (racemic) [Example 72, (rac)-4′-chloro-3′-ethyl-2′-methyl-7′-{3-[(naphthalen-1-yl)oxy]propyl}-2′,10′,11′,15′-tetrahydro-13′H-spiro[cyclopropane-1,12′-pyrazolo[4′,3′:9,10][1,6]oxazacycloundecino[8,7,6-hi]indole]-8′-carboxylic acid] has an EC50 (SUDHL5 cells [1]; Homo sapiens, SU-DHL-5, 3 h) of 730 nM, an EC50 (SUDHL10 cells [2]; Homo sapiens, SU-DHL10, 3 h) of 2800 nM and an IC50 (SUDHL5 cells [3]; Homo sapiens, SU-DHL-5, 72 h) of 8.8e-07 M. It also gave an IC50 (AMO-1 cells; Homo sapiens, AMO1, 72 h) of 2.8e-06 M, an IC50 (SUDHL5 cells [4]; [8]) of 1e-06 M and an IC50 (SUDHL10 cells [5]; [9]) of 2.5e-06 M.
Work on `CCc1c2c(nn1C)COCC1CC1Cn1c(C(=O)O)c(CCCOc3cccc4cc(F)ccc34)c3ccc(Cl)c-2c31` (racemic) [Example 106, (rac)-3-chloro-4-ethyl-14-{3-[(6-fluoronaphthalen-1-yl)oxy]propyl}-5-methyl-5,7,9a,10,10a,11-hexahydro-9H-cyclopropa[3,4]pyrazolo[4′,3′:9,10][1,6]oxazacycloundecino[8,7,6-hi]indole-13-carboxylic acid] yielded an EC50 (SUDHL5 cells [1]; Homo sapiens, SU-DHL-5, 3 h) of 2400 nM, an EC50 (SUDHL10 cells [2]) of 4600 nM and an IC50 (SUDHL5 cells [3]) of 2.1e-06 M. For the same compound, the IC50 (AMO-1 cells) was 8.1e-06 M, the IC50 (SUDHL5 cells [4]; [6]) was 2.8e-06 M and the IC50 (SUDHL10 cells [5]; [7]) was 5.8e-06 M.
Compound `CCc1c2c(nn1C)CN(CCCO)CCCCn1c(C(=O)O)c(CCCOc3cccc4cc(F)ccc34)c3ccc(Cl)c-2c31` (racemic) [Example 139, (rac)-4-chloro-3-ethyl-7-{3-[(6-fluoronaphthalen-1-yl)oxy]propyl}-14-(3-hydroxypropyl)-2-methyl-10,11,12,13,14,15-hexahydro-2H-pyrazolo[3′,4′:8,9][1,6]diazacycloundecino[10,11,1-hi]indole-8-carboxylic acid] has an IC50 (AMO-1 cells; Homo sapiens, AMO1, 72 h) of 4.4e-07 M and an IC50 (HMC-1-8 cells; 72 h) of 5.7e-06 M.
With `CCc1c2c(nn1C)CCCCCCn1c(C(=O)O)c(CCCOc3cccc4cc(F)ccc34)c3ccc(Cl)c-2c31` (single isomer, unassigned; enantiomer 1) [Example 70, (+)-4-chloro-3-ethyl-7-{3-[(6-fluoronaphthalen-1-yl)oxy]propyl}-2-methyl-10,11,12,13,14,15-hexahydro-2H-pyrazolo[4′,3′:4,5]azacycloundecino[3,2,1-hi]indole-8-carboxylic acid-N-ethylethanamine salt (Enantiomer 1)] the EC50 (SUDHL5 cells [1]; Homo sapiens, SU-DHL-5, 3 h) was 710 nM, the EC50 (SUDHL10 cells [2]; Homo sapiens, SU-DHL10, 3 h) was 1300 nM and the IC50 (SUDHL5 cells [3]; Homo sapiens, SU-DHL-5, 72 h) was 1.5e-06 M. It also gave an IC50 (AMO-1 cells; Homo sapiens, AMO1, 72 h) of 1.1e-06 M, an IC50 (SUDHL5 cells [4]; [8]) of 1e-06 M and an IC50 (SUDHL10 cells [5]; [9]) of 1.7e-06 M.
With `CCc1c2c(nn1C)CCCN(C)CCn1c(C(=O)O)c(CCCOc3cccc4cc(F)ccc34)c3ccc(Cl)c-2c31` (single isomer, unassigned) [Example 117, (−)-4-chloro-3-ethyl-7-{3-[(6-fluoronaphthalen-1-yl)oxy]propyl}-2,12-dimethyl-10,11,12,13,14,15-hexahydro-2H-pyrazolo[3′,4′:8,9][1,4]diazacycloundecino[10,11,1-hi]indole-8-carboxylic acid] the EC50 (SUDHL5 cells [1]) was 2400 nM, the EC50 (SUDHL10 cells [2]) was 2600 nM and the IC50 (SUDHL5 cells [3]) was 3.4e-06 M. For the same compound, the IC50 (AMO-1 cells) was 1.2e-06 M, the IC50 (SUDHL5 cells [4]; [6]) was 2.6e-06 M and the IC50 (SUDHL10 cells [5]; [7]) was 2.3e-06 M.
Compound `Cc1c2c(nn1C)COCCCCn1c(C(=O)O)c(CCCOc3cccc4cc(F)ccc34)c3ccc(Cl)c-2c31` (single isomer, unassigned; enantiomer 1) [Example 16, (−)-4-chloro-7-{3-[(6-fluoronaphthalen-1-yl)oxy]propyl}-2,3-dimethyl-2,10,11,12,13,15-hexahydropyrazolo[4′,3′:9,10][1,6]oxazacycloundecino[8,7,6-hi]indole-8-carboxylic acid (Enantiomer 1)] has an EC50 (SUDHL5 cells [1]; Homo sapiens, SU-DHL-5, 3 h) of 3600 nM, an EC50 (SUDHL10 cells [2]; Homo sapiens, SU-DHL10, 3 h) of 5200 nM and an IC50 (SUDHL5 cells [3]; Homo sapiens, SU-DHL-5, 72 h) of 1.5e-06 M. For the same compound, the IC50 (AMO-1 cells; Homo sapiens, AMO1, 72 h) was 8.9e-06 M, the IC50 (SUDHL5 cells [4]; [8]) was 3.3e-06 M and the IC50 (SUDHL10 cells [5]; [9]) was 4.9e-06 M.
Compound `Cc1c2c(nn1C)COCC1CCC1Cn1c(C(=O)O)c(CCCOc3cccc4ccccc34)c3ccc(Cl)c-2c31` (single isomer, unassigned) [Example 80, 3-chloro-4,5-dimethyl-15-{3-[(naphthalen-1-yl)oxy]propyl}-5,7,9,9a,10,11,11a,12-octahydrocyclobuta[3,4]pyrazolo[4′,3′:9,10][1,6]oxazacycloundecino[8,7,6-hi]indole-14-carboxylic acid] has an EC50 (SUDHL5 cells [1]; listed as 080) of 490 nM, an EC50 (SUDHL10 cells [2]; listed as 080) of 450 nM and an IC50 (SUDHL5 cells [3]; Homo sapiens, SU-DHL-5, 72 h) of 2.2e-07 M. It also gave an IC50 (AMO-1 cells; Homo sapiens, AMO1, 72 h) of 1.9e-06 M, an IC50 (SUDHL5 cells [4]; read-out: Cytotox SUDHL5 [M] (median), IC50, median, listed as 080) of 5.8e-07 M and an IC50 (SUDHL10 cells [5]; read-out: Cytotox SUDHL10 [M] (median), IC50, median, listed as 080) of 8.1e-07 M.
For `CCc1c2c(nn1C)CN(C)CC(F)(F)CCn1c(C(=O)O)c(CCCOc3cccc4cc(F)ccc34)c3ccc(Cl)c-2c31` (single isomer, unassigned) [Example 128, 4-chloro-3-ethyl-12,12-difluoro-7-{3-[(6-fluoronaphthalen-1-yl)oxy]propyl}-2,14-dimethyl-10,11,12,13,14,15-hexahydro-2H-pyrazolo[3′,4′:8,9][1,6]diazacycloundecino[10,11,1-hi]indole-8-carboxylic acid], the EC50 (SUDHL5 cells [1]) was 2100 nM, the EC50 (SUDHL10 cells [2]) was 3400 nM and the IC50 (SUDHL5 cells [3]) was 4.1e-06 M. For the same compound, the IC50 (AMO-1 cells) was 6.5e-06 M, the IC50 (SUDHL5 cells [4]; [6]) was 2.3e-06 M and the IC50 (SUDHL10 cells [5]; [7]) was 3.6e-06 M.
